Results taken from the supplement of paper PMC8967900.

Key:
Assay in all cases: selective drug sensitivity score (sDSS, relative to normal bone marrow) (sDSS (score)); higher = more potent and effective on the cell line relative to normal bone marrow cells
Conditions in all cases: 72 h
HAL-01 = test system: HAL-01
HPB-ALL = test system: HPB-ALL
380 = test system: 380
TMD5 = test system: TMD5
NALM-6 = test system: NALM-6
MHH-CALL-2 = test system: MHH-CALL-2
PEER = test system: PEER
RPMI-8402 = test system: RPMI-8402
MOLT-4 = test system: MOLT-4
COG-LL-332h = test system: COG-LL-332h
MOLT-14 = test system: MOLT-14
COG-LL-317 = test system: COG-LL-317
MHH-CALL-4 = test system: MHH-CALL-4
ALL-PO = test system: ALL-PO
P30-OHKUBO = test system: P30-OHKUBO
DND-41 = test system: DND-41
KASUMI-2 = test system: KASUMI-2
KASUMI-9 = test system: KASUMI-9
COG-LL-355h = test system: COG-LL-355h
KARPAS-45 = test system: KARPAS-45
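Also: ALL cell lines in 384-well plates, five doses spanning 10,000-fold, each plate scaled between vehicle and 100 µmol/L benzalkonium chloride controls, sDSS an adapted area-under-curve metric.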

| Structure (SMILES) | selective drug sensitivity score (HAL-01) | selective drug sensitivity score (HPB-ALL) | selective drug sensitivity score 380 | selective drug sensitivity score (TMD5) | selective drug sensitivity score (NALM-6) | selective drug sensitivity score (MHH-CALL-2) | selective drug sensitivity score (PEER) | selective drug sensitivity score (RPMI-8402) | selective drug sensitivity score (MOLT-4) | selective drug sensitivity score (COG-LL-332h) | selective drug sensitivity score (MOLT-14) | selective drug sensitivity score (COG-LL-317) | selective drug sensitivity score (MHH-CALL-4) | selective drug sensitivity score (ALL-PO) | selective drug sensitivity score (P30-OHKUBO) | selective drug sensitivity score (DND-41) | selective drug sensitivity score (KASUMI-2) | selective drug sensitivity score (KASUMI-9) | selective drug sensitivity score (COG-LL-355h) | selective drug sensitivity score (KARPAS-45) |
| --- | --- | --- | --- | --- | --- | --- | --- | --- | --- | --- | --- | --- | --- | --- | --- | --- | --- | --- | --- | --- |
| CNS(=O)(=O)Nc1nccc(Cc2c(C)c3ccc(Oc4ncccn4)cc3oc2=O)c1F (top concentration 1000 nM) | 0.82 | -1.18 | -1.18 | -1.18 | -0.88 | 1.32 | 0.22 | 0.12 | -1.18 | -1.08 | -0.98 | -1.08 | 1.02 | -1.18 | -1.18 | 3.92 | 1.12 | 0.02 | 0.02 | -0.28 |
| C[C@H]1Oc2cc(cnc2N)-c2c(nn(C)c2C#N)CN(C)C(=O)c2ccc(F)cc21 (top concentration 1000 nM) | 4.18 | -0.72 | -0.72 | -0.62 | -0.72 | -0.72 | -0.72 | -0.72 | -0.72 | -0.72 | -0.72 | -0.72 | -0.72 | -0.72 | -0.02 | -0.72 | 4.68 | -0.72 | 2.18 | -0.72 |
| CCc1cncnc1N1CCN(Cc2nc3cc(C(F)(F)F)ccc3[nH]2)CC1 (top concentration 10000 nM) | 4.76 | 0.96 | -0.84 | -0.84 | 1.96 | 5.56 | 4.56 | 5.96 | 2.16 | 1.46 | 0.16 | 1.26 | 5.46 | 3.86 | 5.26 | 0.56 | 2.76 | 3.86 | -0.14 | 2.46 |
| CN(C)CC#Cc1ccc(OCCCc2sc(N3CCc4cccc(C(=O)Nc5nc6ccccc6s5)c4C3)nc2C(=O)O)c(F)c1 (top concentration 10000 nM) | 2.06 | 24.9 | 15.7 | -3.64 | 11.3 | 1.66 | 31.8 | 27.9 | 34.8 | 15.7 | 12.3 | 39.8 | 9.16 | 0.46 | -1.44 | 34 | 5.86 | -1.24 | 27.2 | 38.5 |
| O=C(NC[C@H](O)CN1CCc2ccccc2C1)c1cc(NC2COC2)ncn1 (top concentration 10000 nM) | -0.06 | 3.44 | -0.06 | -0.06 | -0.06 | 0.04 | -0.06 | -0.06 | 2.74 | 1.54 | -0.06 | 10.6 | -0.06 | -0.06 | 0.84 | -0.06 | -0.06 | -0.06 | -0.06 | 0.04 |
| O=C1Cc2cc(C(=O)NC3C[C@H]4CC[C@@H](C3)N4S(=O)(=O)CC3CCN(CCCC(F)(F)F)CC3)c(Cl)cc2N1 (stereo not given in full) (top concentration 10000 nM) | 0 | 0.5 | 0 | 2.6 | 0 | 0 | 0 | 0 | 0 | 0 | 0 | 0 | 0 | 0 | 0.5 | 0 | 0 | 0.6 | 0.9 | 0 |
| CC/C(=C(\c1ccc(O)cc1)c1ccc(OCCN(C)C)cc1)c1ccccc1 [4-hydroxytamoxifen] (top concentration 10000 nM) | 1.92 | 0.52 | -1.48 | -1.78 | 0.02 | 2.12 | 2.32 | 2.62 | 0.62 | 0.82 | 0.32 | 0.62 | 0.42 | 3.12 | 4.12 | 2.72 | -3.78 | 3.62 | 1.72 | 1.52 |
| COCC1(CO)C(=O)C2CCN1CC2 (stereo not given) [APR-246] (top concentration 10000 nM) | -0.36 | 2.14 | 4.54 | -1.16 | 1.14 | 6.84 | -1.16 | -1.16 | -1.16 | -0.56 | -1.16 | -1.16 | 0.64 | -1.16 | -0.76 | -1.16 | -1.16 | -0.66 | 2.44 | -1.16 |
| Cc1sc2c(c1C)C(c1ccc(Cl)cc1)=N[C@@H](CC(=O)Nc1ccc(OCCOCCOCCOCCNc3cccc4c3C(=O)N(C3CCC(=O)NC3=O)C4=O)cc1)c1nnc(C)n1-2 (stereo not given in full) [ARV-825] (top concentration 300 nM) | -12.1 | -10.9 | 2.04 | 0.14 | 1.24 | 4.94 | -0.46 | 1.04 | -10.4 | -1.46 | -0.86 | -0.26 | 7.54 | 2.34 | 3.74 | 0.84 | -4.46 | 6.64 | 10.2 | -8.06 |
| COc1cc(OC2CCN(C)CC2)ccc1Nc1ncc2c(n1)n(C1CCCC1)c(=O)n2C [AZ3146] (top concentration 10000 nM) | 2.24 | 3.14 | -2.86 | -4.06 | 3.04 | 1.94 | 2.54 | 1.94 | 1.84 | 1.34 | 2.04 | 0.74 | 0.64 | 3.44 | -0.06 | 0.24 | -4.16 | -0.36 | 2.94 | 0.94 |
| CN(C)CCCOc1ccc(-c2ccc3ncc4c(c3c2)n(C2CCOCC2)c(=O)n4C)cn1 [AZD0156] (top concentration 1000 nM) | 0.64 | 0.24 | 2.24 | -0.06 | -0.06 | 1.84 | -0.06 | 0.14 | -0.06 | 0.64 | 0.14 | -0.06 | 1.54 | 2.24 | 2.04 | 4.14 | 2.84 | 1.04 | 0.74 | 0.14 |
| N#Cc1ccc2[nH]c(O)c(-c3ccc(CN4CCOCC4)cn3)c2c1 [AZD-1080] (top concentration 10000 nM) | -0.02 | -0.02 | -0.02 | -0.02 | 1.78 | -0.02 | -0.02 | -0.02 | -0.02 | -0.02 | -0.02 | 3.38 | -0.02 | 2.18 | 1.78 | -0.02 | 3.48 | 4.08 | 3.98 | -0.02 |
| CN(C)C/C=C/C(=O)Nc1cc2c(Nc3ccc(F)c(Cl)c3)ncnc2cc1O[C@H]1CCOC1 [Afatinib] (top concentration 1000 nM) | 3.06 | -0.84 | -0.84 | 3.56 | -0.84 | 0.16 | 0.66 | -0.84 | -0.84 | -0.84 | -0.84 | -0.84 | -0.84 | -0.64 | 1.56 | -0.84 | -0.84 | 2.16 | 0.46 | 1.06 |
| O=C(Nc1ccc(OC(F)(F)Cl)cc1)c1cnc(N2CC[C@@H](O)C2)c(-c2cc[nH]n2)c1 [Asciminib] (top concentration 1000 nM) | -0.88 | 1.62 | 1.92 | 13.6 | 0.42 | -1.98 | 16.2 | -1.98 | 1.12 | 5.62 | -0.28 | -0.88 | 7.12 | -0.28 | -0.58 | 0.22 | -1.98 | -1.68 | 2.02 | -1.98 |
| CC[C@@H]1C(=O)N(C)c2cnc(Nc3ccc(C(=O)NC4CCN(C)CC4)cc3OC)nc2N1C1CCCC1 [BI-2536] (top concentration 1000 nM) | 3.64 | 18.2 | 18.3 | 10.4 | 13.4 | 16.2 | 20.8 | 22.4 | 19.6 | 17.4 | 19 | 21.2 | 6.94 | 15.9 | 18.3 | 15.6 | 14.1 | 20.3 | 4.84 | 21.3 |
| Cc1ccc(NC(=O)c2ccc(CN3CC[C@H](N(C)C)C3)c(C(F)(F)F)c2)cc1Nc1nccc(-c2cncnc2)n1 [Bafetinib] (top concentration 1000 nM) | 0 | 0 | 0 | 9.1 | 0 | 0 | 15.4 | 0 | 0 | 12.3 | 0.3 | 0 | 0 | 0 | 0 | 1 | 0.3 | 0 | 0.8 | 0 |
| CC[C@H](NC(=O)[C@H](C)NC)C(=O)N1C[C@@H](O)C[C@H]1Cc1c(-c2[nH]c3cc(F)ccc3c2C[C@@H]2C[C@H](O)CN2C(=O)[C@H](CC)NC(=O)[C@H](C)NC)[nH]c2cc(F)ccc12 [Birinapant] (top concentration 1000 nM) | -5.1 | -5.1 | -5.1 | -0.1 | -4.2 | 8.7 | -4.4 | -3.2 | -5.1 | 9.6 | -5.1 | -5 | 7.5 | -1.9 | -0.1 | -5.1 | 7.8 | -5.1 | 13.3 | -5.1 |
| COc1cc2nccc(Oc3ccc(NC(=O)C4(C(=O)Nc5ccc(F)cc5)CC4)cc3)c2cc1OC [Cabozantinib] (top concentration 1000 nM) | 3.88 | -3.02 | -3.62 | -3.62 | -2.82 | -3.62 | 2.08 | -1.62 | -0.92 | -0.12 | 1.28 | -3.62 | 3.78 | 10.4 | -3.62 | -3.62 | -3.62 | -3.62 | 2.18 | -2.42 |
